Measured values: ChEMBL document CHEMBL5543095 (Eur J Med Chem, 2024)
Active and inactive are the calls of the source. The rule behind the calls is not given here.

Experiments:
U-87 MG [1] = test: Antiproliferative activity against human U87 cells assessed as inhibition of cell growth inhibition incubated for 48 hrs by CCK-8 assay; format: functional, cell-based, U-87MG ATCC
Huh-7 = test: Antiproliferative activity against human Huh-7 cells assessed as inhibition of cell growth inhibition incubated for 48 hrs by CCK-8 assay; format: functional, cell-based; conditions: Huh-7, 48 h
U-87 MG [2] = test: Induction of cell cycle arrest in human U87 cells assessed as accumulation of cells at […] at 0.5 uM measured after 48 hrs by PI staining based flow cytometry analysis (reference value: 8.55%); format: functional, U-87MG ATCC
U-87 MG [3] = test: Induction of cell cycle arrest in human U87 cells assessed as accumulation of cells at G1 phase at 1 uM measured after 48 hrs by PI staining based flow cytometry analysis (reference value: 72.6%); format: functional, U-87MG ATCC
U-87 MG [4] = test: Induction of cell cycle arrest in human U87 cells assessed as accumulation of cells at […] at 2 uM measured after 48 hrs by PI staining based flow cytometry analysis (reference value: 8.55%); format: functional, U-87MG ATCC
U-87 MG [5] = test: Induction of cell cycle arrest in human U87 cells assessed as accumulation of cells at G1 phase at 4 uM measured after 48 hrs by PI staining based flow cytometry analysis (reference value: 72.6%); format: functional, U-87MG ATCC
U-87 MG [6] = test: Induction of cell cycle arrest in human U87 cells assessed as accumulation of cells at […] at 4 uM measured after 48 hrs by PI staining based flow cytometry analysis (reference value: 8.55%); format: functional, U-87MG ATCC
U-87 MG [7] = test: Induction of apoptosis in human U87 cells assessed as early apoptotic cells at 0.3125 uM incubated for 48 hrs by Annexin V-FITC/PI staining based flow cytometry analysis (reference value: 6.25%); format: functional, U-87MG ATCC
U-87 MG [8] = test: Induction of apoptosis in human U87 cells assessed as late apoptotic cells at 0.3125 uM incubated for 48 hrs by Annexin V-FITC/PI staining based flow cytometry analysis (reference value: 2.08%); format: functional, U-87MG ATCC
U-87 MG [9] = test: Induction of apoptosis in human U87 cells assessed as dead cells at 0.3125 uM incubated for 48 hrs by Annexin V-FITC/PI staining based flow cytometry analysis (reference value: 0.013%); format: functional, U-87MG ATCC
U-87 MG [10] = test: Induction of apoptosis in human U87 cells assessed as early apoptotic cells at 2.5 uM incubated for 48 hrs by Annexin V-FITC/PI staining based flow cytometry analysis (reference value: 6.25%); format: functional, U-87MG ATCC
GL261-Luc [11] = test: Antitumor activity against mouse GL261-Luc cells implanted in iv dosed C57BL/6 mouse assessed as inhibition of tumor growth administered every other day on day 0,2,4,6,8,10 and measured on day 12 by bioluminescence imaging analysis; format: functional, organism-based; conditions: dose 5-10 mg/kg, time 12.0 day
GL261-Luc [12] = test: Antitumor activity against mouse GL261-Luc cells implanted in C57BL/6 mouse assessed as prolongation of animal survival time at 5 to 10 mg/kg, iv administered every other day on day 0,2,4,6,8,10 and measured after 12 days; format: functional, organism-based; conditions: dose 5-10 mg/kg, time 12.0 day
GL261-Luc [13] = test: Antivascular activity against mouse GL261-Luc cells implanted in C57BL/6 mouse assessed as reduction in tumor microvessel density at 5 to 10 mg/kg, iv administered every other day on day 0,2,4,6,8,10 and measured after 12 days by IHC staining based analysis; format: functional, organism-based; conditions: dose 5-10 mg/kg, time 12.0 day
[14] = Toxicity in C57BL/6 mouse implanted with mouse GL261-Luc cells assessed as histopathological changes in kidney at 5 to 10 mg/kg, iv administered every other day on day 0,2,4,6,8,10 and measured after 12 days by H and E staining based analysis; format: organism-based; conditions: in vivo, 288 h, dose 5-10 mg/kg, time 12 day
[15] = Apparent permeability across apical to basolateral side in MDCK-MDR1 cells at 10 uM incubated for 90 mins by LC-MS/MS analysis; format: ADME, cell-based, Canis lupus familiaris; conditions: dog
[16] = Apparent permeability across basolateral to apical side in MDCK-MDR1 cells at 10 uM incubated for 90 mins by LC-MS/MS analysis; format: ADME, cell-based, Canis lupus familiaris; conditions: dog
U-87MG ATCC = test: Downregulation of TUBA1B gene expression in human U87 cells by transcriptome analysis; format: functional, cell-based
Tubulin (Homo sapiens) = Tubulin (Homo sapiens) (UniProt P68371+Q9H4B7+P0DPH7+P68366+Q13509+Q71U36+P04350+Q3ZCM7+P07437+P68363+Q9BQE3+Q6PEY2+Q13885+Q9BVA1+Q9BUF5); test: Induction of microtubule depolymerization in human U87 cells assessed as degradation of intracellular tubulin skeleton by measuring reduction in fluorescence intensity at 0.5 to 1 uM incubated for 48 hrs by Alexa Flour 555/DAPI staining based confocal microscopic analysis; format: cell-based; conditions: dose 0.5-1 µM

## Cc1ccc2ccc3c(c2n1)OC(N)=C(C#N)C3c1ccccc1 (centres undefined)
U-87 MG [1]
  IC50: 900 nM
Huh-7
  IC50: 1190 nM
U-87 MG [2]
  Activity: 10.6%
U-87 MG [3]
  Activity: 33%
U-87 MG [4]
  Activity: 56.2%
U-87 MG [5]
  Activity: 13%
U-87 MG [6]
  Activity: 59.3%
U-87 MG [7]
  Activity: 7.01%
U-87 MG [8]
  Activity: 4.87%
U-87 MG [9]
  Activity: 0.019%
U-87 MG [10]
  Activity: 20.6%
GL261-Luc [11]
  Activity: Dose-Dependent Effect
GL261-Luc [12]
  Activity: Active
GL261-Luc [13]
  Activity: Active
[14]
  Activity: Non-Toxic
[15]
  Papp A→B at 1.5 h, 10 µM: 33.7 ×10⁻⁶ cm/s
[16]
  Papp B→A at 1.5 h, 10 µM: 25.8 ×10⁻⁶ cm/s
U-87MG ATCC
  Activity: Active
Tubulin (Homo sapiens)
  Activity: Active
